Assay results published in patent US20230219951A1, “PYRIDINE-PYRIMIDINE DERIVATIVE, PREPARATION METHOD THEREFOR AND PHARMACEUTICAL USE THEREOF” (Jiangsu Hengrui Pharmaceuticals Co., Ltd., priority 2020, published 2023).

Tests used:
[1] = biological target: T1, interaction between the KRAS protein subtype G12D and the SOS1 protein (Homo sapiens, UniProt Q07889); test: Inhibition of the interaction between KRAS G12D and SOS1 protein (AlphaLISA/AlphaScreen); type: binding; conditions: KRAS G12D + GST-TEV-SOS1(564-1049) + GDP
T1 construct: GST-TEV-SOS1(564-1049) (Viva Biotech, SOS1-191010); purchased SOS1: Viva Biotech; KRAS: Shanghai Panchao Biotechnology Co., Ltd. SOS1-191010
T1 sequence (Q07889 564-1049): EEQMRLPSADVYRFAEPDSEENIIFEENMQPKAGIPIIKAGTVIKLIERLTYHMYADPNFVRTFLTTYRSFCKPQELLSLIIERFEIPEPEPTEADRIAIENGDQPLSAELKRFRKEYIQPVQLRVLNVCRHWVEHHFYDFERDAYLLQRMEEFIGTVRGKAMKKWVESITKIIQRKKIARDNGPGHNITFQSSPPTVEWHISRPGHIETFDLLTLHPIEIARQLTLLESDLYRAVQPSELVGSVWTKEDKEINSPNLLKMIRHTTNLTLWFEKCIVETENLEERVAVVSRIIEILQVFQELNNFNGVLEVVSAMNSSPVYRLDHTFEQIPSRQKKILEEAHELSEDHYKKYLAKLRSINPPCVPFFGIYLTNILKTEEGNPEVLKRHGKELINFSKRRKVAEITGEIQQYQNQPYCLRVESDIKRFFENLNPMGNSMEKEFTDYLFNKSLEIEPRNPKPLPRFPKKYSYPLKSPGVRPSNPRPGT
Description: (§1) Test Example 1: Inhibitory Ability of Compounds of the Present Disclosure to the Interaction Between the KRAS Protein Subtype G12D or G12V and the SOS1 Protein. The inhibitory ability of the compounds of the present disclosure to the interaction between the KRAS protein subtype G12D or G12V and the SOS1 protein was determined by the following method. The experimental method was briefly described as follows:
(§2) 1. The experimental buffer was prepared prior to the start of the experiment: 1×PBS+0.1% BSA+0.05% tween 20.
(§3) 2. KRAS G12D and KRAS-G12V proteins were labeled with biotin using the biotin labeling kit.
(§4) 1. Firstly, the biotin-labeled KRAS G12D or KRAS G12V protein was mixed and incubated with the SOS1 protein and GDP for later use.
(§5) 2. AlphaLISA glutathione acceptor beads and AlphaScreen streptavidin donor beads were mixed at a ratio of 1:1 to make the concentration of 40 μg/mL for later use.
(§6) 3. The compound was formulated with the experimental buffer to obtain 10 concentration points by 5-fold gradient dilution from an initial concentration of 40 μM.
(§7) 4. In the 384-well microplate, 10 μL of a mixture of KRAS G12D or KRAS G12V protein and SOS1 and GDP and 5 μL of the diluted compound were added to each well and incubated at room temperature for 30 min away from the light.
(§8) 5. Then, 5 μL of a mixture of AlphaLISA glutathione acceptor beads and AlphaScreen streptavidin donor beads was added to each well and incubated at room temperature for 60 min away from the light.
(§9) 6. The fluorescence values were read on a multi-mode microplate reader.
(§10) 7. IC50 values of the compounds were calculated using Graphpad Prism.

[2] = biological target: T2, interaction between the KRAS protein subtype G12V and the SOS1 protein (Homo sapiens, UniProt Q07889); test: Inhibition of the interaction between KRAS G12V and SOS1 protein (AlphaLISA/AlphaScreen); type: binding; conditions: KRAS G12V + GST-TEV-SOS1(564-1049) + GDP
T2 construct: GST-TEV-SOS1(564-1049) (Viva Biotech, SOS1-191010); purchased SOS1: Viva Biotech; KRAS: Shanghai Panchao Biotechnology Co., Ltd. SOS1-191010
T2 sequence (Q07889 564-1049): T1 sequence (Q07889 564-1049)
Description: as §1, §2, §3, §4, §5, §6, §7, §8, §9, §10

[3] = system: ERK phosphorylation of H358 cells; test: Inhibition of ERK phosphorylation of H358 cells (HTRF pERK/total ERK); type: cell-based; conditions: Homo sapiens, NCI-H358, 1 h incubation, pERK/total ERK ratio
Description: This experiment is intended to evaluate the inhibition effect of the compounds of the present disclosure on the KRAS target (containing the G12C mutation) according to IC50 by determining the inhibition effect of the compounds on ERK phosphorylation of the cells.
H358 cells (ATCC, CRL-5807) were cultured in RPMI1640 (Hyclone, SH30809.01) complete medium containing 10% fetal bovine serum. On the first day of the experiment, the H358 cells were seeded into a 96-well plate at a density of 25,000 cells/well with a complete medium to form 190 μL of cell suspension per well. The plate was incubated overnight in a cell incubator at 37° C. with 5% CO2. The next day, 10 μL of test compound diluted in a gradient prepared with the complete medium was added to each well. The final concentrations of the compound were 9 concentration points obtained by 5-fold gradient dilution from 10 μM. A blank control containing 0.1% DMSO was set. The plate was incubated in a cell incubator at 37° C. with 5% CO2 for 1 h. 1 h later, the 96-well cell culture plate was taken out, the medium was removed by pipetting, 200 μL PBS (Shanghai BasalMedia Technologies Co., Ltd., B320) was added to each well, and the cells were washed once. PBS was removed by pipetting, 50 μL of lysis buffer (Cisbio, 64KL1FDF) containing a blocking reagent (Cisbio, 64KB1AAC) was added to each well, and the plate was shaken on a shaker at room temperature for 40 min for lysis. After lysis, the lysate was pipetted and mixed well, 16 μL of lysate was transferred from each well to each of two HTRF 96-well assay plates (Cisbio, 66PL96100), and then 4 μL of premixed phospho-ERK1/2 antibody solution (Cisbio, 64AERPEG) or 4 μL of premixed total-ERK1/2 antibody solution (Cisbio, 64NRKPEG) was added to each of the two plates. The microplate was sealed with a sealing membrane, centrifuged for 1 min in a microplate centrifuge, and incubated overnight at room temperature away from the light. On the third day, the fluorescence values at an excitation wavelength of 337 nm and at emission wavelengths of 665 nm and 620 nm were read using a PHERAstar multi-mode microplate reader (BMG Labtech, S/N 471-0361).
IC50 values for inhibitory activity of the compounds were calculated using Graphpad Prism software based on compound concentrations and pERK/total ERK ratio.

[4] = system: H358 cells; test: Inhibition of proliferation of H358 cells (CellTiter-Glo 3D); type: cell-based; conditions: Homo sapiens, NCI-H358, low adsorption plate, 120 h
Description: This example is intended to evaluate the inhibition effect of the compounds of the present disclosure on the KRAS target (containing the G12C mutation) by testing the inhibition effect of the compounds of the present disclosure on the proliferation of H358 cells.
H358 cells (ATCC, CRL-5807) were cultured in a complete medium, namely RPMI1640 medium (Hyclone, SH30809.01) containing 10% fetal bovine serum (Corning, 35-076-CV). On the first day of the experiment, the H358 cells were seeded into a 96-well low adsorption plate (Coming, CLS7007-24EA) at a density of 1500 cells/well with a complete medium to form 90 μL of cell suspension per well. The plate was centrifuged at 2000 rpm for 5 min at room temperature and then incubated overnight in a cell incubator at 37° C. with 5% CO2. The next day, 10 μL of test compound diluted in a gradient prepared with the complete medium was added to each well. The final concentrations of the compound were 9 concentration points obtained by 5-fold gradient dilution from 10 μM. A blank control containing 0.1% DMSO was set. The plate was incubated in a cell incubator at 37° C. with 5% CO2 for 120 h. On the seventh day, the 96-well cell culture plate was taken out and 50 μL of CellTiter-Glo® 3D reagent (Promega, G9682) was added into each well. The plate was shaken at room temperature for 25 min, pipetted and mixed well, from which 50 μL of the mixture was transferred into a white impermeable 96-well plate (PE, 6005290). The luminescence signal values were read using a multi-mode microplate reader (PerkinElmer, VICTOR 3).
IC50 values for the inhibitory activity of the compounds were calculated using Graphpad Prism software.

Cc1nc(N[C@H](C)c2cccc(C(F)F)c2F)c2cc([C@]3(O)CC[C@H](O)CC3)c(=O)n(C)c2n1 [Example 28-p2, 4-(((R)-1-(3-(difluoromethyl)-2-fluorophenyl)ethyl)amino)-6-((1r,4R)-1,4-dihydroxycyclohexyl)-2,8-dimethylpyrido[2,3-d]pyrimidin-7(8H)-one]
IC50 [1]: 175 nM
IC50 [2]: 187 nM
IC50 [3]: 937 nM
IC50 [4]: 716 nM
